{"source": "patent US7423009B2", "about": "“Method for treatment of kidney diseases” (Kowa Company, Ltd., priority 2002, dated 2008)", "test_system": "nephritis induced by anti-GBM antiserum in wild type mouse", "test": "Nephritis induced by anti-GBM antiserum in wild type mice: amount of albumin in urine", "assay_type": "in vivo", "settings": "for amount of albumin in urine: urine collected 18 hours after final administration", "protocol": "(§1) Anti-GBM antiserum was administered to the wild type mice to induce nephritis, the mice were classified into three groups and the first group was administered with a peptide having an amino acid sequence of SLIGRL which is a selective stimulant for PAR-2 while the second group was administered with prednisolone which has been used as a treating agent for nephritis. In each group, administration was conducted once daily for consecutive seven days. The third group was a group which was not treated with a drug (control group). Further, for comparison, another untreated group where no anti-GBM antiserum was administered was prepared as the fourth group (in each group, n=6).\nImmediately after the final administration of the drug solution, urine was collected for 18 hours and the amount of albumin in urine was measured.\nas §1, with “In the same manner, anti-GBM” for “Anti-GBM”, “ASKH95” for “a peptide having an amino acid sequence of SLIGRL”, “group)” for “group). Further, for comparison, another untreated group where no anti-GBM antiserum was administered was prepared as the fourth group”\nNephritis was induced by a single administration of […] having about 16-fold of titer of antibody in an amount of 0.4 ml per mouse into tail vein (Jpn. J. Pharmacol., 33, 1145-1154, 1983). With regard to the amount of albumin in urine used as an index for nephritis, the amount of albumin in urine collected for 18 hours using a metabolic cage (manufactured by Sugiyamagen) was determined using an ELISA kit manufactured by Exocel and expressed in terms of μg/18 hours/100 g body weight. The resulting data were analyzed by a Student t-test and evaluated.\n(§2) Anti-GBM antiserum was administered to a wild type mouse and, immediately after that, 0.3 μmol/kg of SLIGRL which is a selective stimulant for PAR-2 dissolved in a phosphate buffer or 3 mg/kg of prednisolone suspended in 0.5% methyl cellulose solution was administered thereto once daily for consecutive seven days (in each group, n=6). SLIGRL was administered to tail vein with a dose of 1 ml/100 g body weight at the rate of 0.1 ml/second. Prednisolone was compulsorily administered per os with a dose of 1 ml/100 g body weight. As a control, a group which was not treated with a drug (control group) was set up. As from immediately after the final administration of the drug solution, urine was collected for 18 hours using a metabolic cage and the amount of albumin in urine was measured.\nas §2, with “In the same manner as example 3, anti-GBM” for “Anti-GBM”, “10 mg/kg” for “0.3 μmol/kg”, “ASKH95” for “SLIGRL”, “measured. Incidentally, ASKH95 is synthesized according to the literature (J. Clin. Invest. 111, 35-41, 2003), and used.” for “measured.”", "data": [{"compound": "2-furoyl-LIGKV-OH [ASKH95]", "values": [{"measurement": "effect on amount of albumin in urine compared with control group (in words)", "setting": "Example 4, ASKH95 10 mg/kg to tail vein once daily for seven days", "result": "decreased significantly"}, {"measurement": "amount of albumin in urine", "setting": "Example 4, ASKH95 10 mg/kg to tail vein once daily for seven days, control group 81319.0±8884.3", "result": "34709.6±8703.3 μg/18 hours/100 g body weight"}]}, {"compound": "C[C@]12C=CC(=O)C=C1CC[C@@H]1[C@@H]2[C@@H](O)C[C@@]2(C)[C@H]1CC[C@]2(O)C(=O)CO", "note": "[prednisolone]", "values": [{"measurement": "amount of albumin in urine reduced to an extent of % of the control group", "setting": "Example 3, prednisolone 3 mg/kg per os once daily for seven days, not a significant suppression", "result": 52.7, "unit": "%"}, {"measurement": "amount of albumin in urine", "setting": "Example 3, prednisolone 3 mg/kg per os once daily for seven days, control group 3528.5±1238.6", "result": "1670.6±579.4 μg/18 hours/100 g body weight"}, {"measurement": "effect on amount of albumin in urine compared with control group (in words)", "setting": "Example 4, prednisolone 3 mg/kg per os once daily for seven days", "result": "almost no effect"}, {"measurement": "amount of albumin in urine", "setting": "Example 4, prednisolone 3 mg/kg per os once daily for seven days, control group 81319.0±8884.3", "result": "75692.1±12846.9 μg/18 hours/100 g body weight"}]}, {"compound": "SLIGRL", "values": [{"measurement": "amount of albumin in urine", "setting": "Example 3, SLIGRL 0.3 μmol/kg to tail vein once daily for seven days, control group 3528.5±1238.6", "result": "104.2±54.0 μg/18 hours/100 g body weight"}, {"measurement": "decrease of amount of albumin in urine", "setting": "Example 3, SLIGRL 0.3 μmol/kg to tail vein once daily for seven days, versus control group, significant", "result": 97.0, "unit": "%"}]}]}
